Experimental data reported in PubChem BioAssay (NCI).
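Protocol summary: plate cells (96-well), add compound at 5 concentrations, incubate 48 h, interpolate endpoints linearly. TGI: total growth inhibition.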

Experiments:
Experiment in all cases: growth of human tumour cells (NCI), 48 h
786-0 renal = tested on: 786-0 renal
A498 renal = tested on: A498 renal
A549 NSCLC = tested on: A549 NSCLC
ACHN renal = tested on: ACHN renal
BT-549 breast = tested on: BT-549 breast
CAKI-1 renal = tested on: CAKI-1 renal
COLO 205 colon = tested on: COLO 205 colon
DU-145 prostate = tested on: DU-145 prostate
EKVX NSCLC = tested on: EKVX NSCLC
HCC-2998 colon = tested on: HCC-2998 colon
HCT-116 colon = tested on: HCT-116 colon
HCT-15 colon = tested on: HCT-15 colon
HOP-62 NSCLC = tested on: HOP-62 NSCLC
HOP-92 NSCLC = tested on: HOP-92 NSCLC
HS 578T breast = tested on: HS 578T breast
HT29 colon = tested on: HT29 colon
IGROV1 ovarian = tested on: IGROV1 ovarian
KM12 colon = tested on: KM12 colon
M14 melanoma = tested on: M14 melanoma
MALME-3M melanoma = tested on: MALME-3M melanoma
MCF7 breast = tested on: MCF7 breast
MDA-MB-435 = tested on: MDA-MB-435
MDA-N = tested on: MDA-N
MOLT-4 leukemia = tested on: MOLT-4 leukemia
NCI-H23 lung = tested on: NCI-H23 lung
NCI-H460 lung = tested on: NCI-H460 lung
NCI-H522 lung = tested on: NCI-H522 lung
OVCAR-3 ovarian = tested on: OVCAR-3 ovarian
OVCAR-4 ovarian = tested on: OVCAR-4 ovarian
OVCAR-5 ovarian = tested on: OVCAR-5 ovarian
OVCAR-8 ovarian = tested on: OVCAR-8 ovarian
PC-3 prostate = tested on: PC-3 prostate
RPMI-8226 leukemia = tested on: RPMI-8226 leukemia
RXF 393 renal = tested on: RXF 393 renal
SF-268 CNS = tested on: SF-268 CNS
SF-295 CNS = tested on: SF-295 CNS
SF-539 CNS = tested on: SF-539 CNS
SK-MEL-28 melanoma = tested on: SK-MEL-28 melanoma
SK-MEL-5 melanoma = tested on: SK-MEL-5 melanoma
SK-OV-3 ovarian = tested on: SK-OV-3 ovarian
SN12C renal = tested on: SN12C renal
SNB-19 CNS = tested on: SNB-19 CNS
SNB-75 CNS = tested on: SNB-75 CNS
SR leukemia = tested on: SR leukemia
SW-620 colon = tested on: SW-620 colon
TK-10 renal = tested on: TK-10 renal
U251 CNS = tested on: U251 CNS
UACC-257 melanoma = tested on: UACC-257 melanoma
UACC-62 melanoma = tested on: UACC-62 melanoma
UO-31 renal = tested on: UO-31 renal
CCRF-CEM leukemia = tested on: CCRF-CEM leukemia
HL-60(TB) leukemia = tested on: HL-60(TB) leukemia
K-562 leukemia = tested on: K-562 leukemia
LOX IMVI melanoma = tested on: LOX IMVI melanoma
MDA-MB-231 breast = tested on: MDA-MB-231 breast
NCI-H226 lung = tested on: NCI-H226 lung
NCI/ADR-RES ovarian = tested on: NCI/ADR-RES ovarian
T-47D breast = tested on: T-47D breast

## COC(C)(C)C1=CCC(C)CC1 (centres undefined)
786-0 renal
  TGI: > 100 µM
A498 renal
  TGI: > 100 µM
A549 NSCLC
  TGI: > 100 µM
ACHN renal
  TGI: > 100 µM
BT-549 breast
  TGI: > 100 µM
CAKI-1 renal
  TGI: > 100 µM
COLO 205 colon
  TGI: > 100 µM
DU-145 prostate
  TGI: > 100 µM
EKVX NSCLC
  TGI: > 100 µM
HCC-2998 colon
  TGI: > 100 µM
HCT-116 colon
  TGI: > 100 µM
HCT-15 colon
  TGI: > 100 µM
HOP-62 NSCLC
  TGI: > 100 µM
HOP-92 NSCLC
  TGI: > 100 µM
HS 578T breast
  TGI: > 100 µM
HT29 colon
  TGI: > 100 µM
IGROV1 ovarian
  TGI: > 100 µM
KM12 colon
  TGI: > 100 µM
M14 melanoma
  TGI: > 100 µM
MALME-3M melanoma
  TGI: > 100 µM
MCF7 breast
  TGI: > 100 µM
MDA-MB-435
  TGI: > 100 µM
MDA-N
  TGI: > 100 µM
MOLT-4 leukemia
  TGI: > 100 µM
NCI-H23 lung
  TGI: > 100 µM
NCI-H460 lung
  TGI: > 100 µM
NCI-H522 lung
  TGI: > 100 µM
OVCAR-3 ovarian
  TGI: > 100 µM
OVCAR-4 ovarian
  TGI: > 100 µM
OVCAR-5 ovarian
  TGI: > 100 µM
OVCAR-8 ovarian
  TGI: > 100 µM
PC-3 prostate
  TGI: > 100 µM
RPMI-8226 leukemia
  TGI: > 100 µM
RXF 393 renal
  TGI: > 100 µM
SF-268 CNS
  TGI: > 100 µM
SF-295 CNS
  TGI: > 100 µM
SF-539 CNS
  TGI: > 100 µM
SK-MEL-28 melanoma
  TGI: > 100 µM
SK-MEL-5 melanoma
  TGI: > 100 µM
SK-OV-3 ovarian
  TGI: > 100 µM
SN12C renal
  TGI: > 100 µM
SNB-19 CNS
  TGI: > 100 µM
SNB-75 CNS
  TGI: > 100 µM
SR leukemia
  TGI: 78 µM
SW-620 colon
  TGI: > 100 µM
TK-10 renal
  TGI: > 100 µM
U251 CNS
  TGI: > 100 µM
UACC-257 melanoma
  TGI: > 100 µM
UACC-62 melanoma
  TGI: > 100 µM
UO-31 renal
  TGI: > 100 µM

## CC(=O)NC1C(OCc2ccccc2)OC(CO)C(O)C1OC(C)C(=O)NC(C)C(=O)NC(CCC(=O)NCCCNc1c2ccccc2nc2cccc([N+](=O)[O-])c12)C(N)=O (centres undefined)
786-0 renal
  TGI: > 100 µM
A498 renal
  TGI: 6.11 µM
A549 NSCLC
  TGI: 11.6 µM
ACHN renal
  TGI: 6.9 µM
CAKI-1 renal
  TGI: 7.87 µM
CCRF-CEM leukemia
  TGI: > 100 µM
COLO 205 colon
  TGI: 2.34 µM
EKVX NSCLC
  TGI: 22.6 µM
HCC-2998 colon
  TGI: 2.52 µM
HCT-116 colon
  TGI: 2.38 µM
HCT-15 colon
  TGI: 7.3 µM
HL-60(TB) leukemia
  TGI: > 100 µM
HOP-62 NSCLC
  TGI: 8.78 µM
HOP-92 NSCLC
  TGI: 5.8 µM
HS 578T breast
  TGI: 40.4 µM
HT29 colon
  TGI: > 100 µM
IGROV1 ovarian
  TGI: 72.9 µM
K-562 leukemia
  TGI: 11.1 µM
KM12 colon
  TGI: 23.5 µM
LOX IMVI melanoma
  TGI: 27.7 µM
M14 melanoma
  TGI: 3.97 µM
MALME-3M melanoma
  TGI: 7.61 µM
MCF7 breast
  TGI: > 100 µM
MDA-MB-231 breast
  TGI: 3.26 µM
MDA-MB-435
  TGI: 2.65 µM
MDA-N
  TGI: 2.77 µM
MOLT-4 leukemia
  TGI: > 100 µM
NCI-H226 lung
  TGI: 11.2 µM
NCI-H23 lung
  TGI: 11.8 µM
NCI-H460 lung
  TGI: 1.96 µM
NCI-H522 lung
  TGI: 4.05 µM
NCI/ADR-RES ovarian
  TGI: 65.7 µM
OVCAR-3 ovarian
  TGI: 6.53 µM
OVCAR-4 ovarian
  TGI: > 100 µM
OVCAR-5 ovarian
  TGI: 8.02 µM
OVCAR-8 ovarian
  TGI: 9.07 µM
RPMI-8226 leukemia
  TGI: > 100 µM
RXF 393 renal
  TGI: 3.04 µM
SF-268 CNS
  TGI: 6.32 µM
SF-295 CNS
  TGI: 35.2 µM
SF-539 CNS
  TGI: 19.3 µM
SK-MEL-28 melanoma
  TGI: 8.04 µM
SK-MEL-5 melanoma
  TGI: 2.47 µM
SK-OV-3 ovarian
  TGI: 34.7 µM
SN12C renal
  TGI: 11 µM
SNB-19 CNS
  TGI: > 100 µM
SNB-75 CNS
  TGI: 9.92 µM
SR leukemia
  TGI: > 100 µM
SW-620 colon
  TGI: 11.6 µM
T-47D breast
  TGI: > 100 µM
TK-10 renal
  TGI: 9.97 µM
U251 CNS
  TGI: 12.8 µM
UACC-257 melanoma
  TGI: 4.71 µM
UACC-62 melanoma
  TGI: 3.82 µM
UO-31 renal
  TGI: 8.3 µM

## COc1ccc(C(=O)Sc2c(-c3ccccc3)c(=O)n(-c3ccccc3)c(=S)n2-c2ccccc2)cc1
786-0 renal
  TGI: > 100 µM
A498 renal
  TGI: 44 µM
A549 NSCLC
  TGI: > 100 µM
ACHN renal
  TGI: > 100 µM
CAKI-1 renal
  TGI: > 100 µM
CCRF-CEM leukemia
  TGI: > 100 µM
COLO 205 colon
  TGI: > 100 µM
DU-145 prostate
  TGI: > 100 µM
EKVX NSCLC
  TGI: > 100 µM
HCC-2998 colon
  TGI: > 100 µM
HCT-116 colon
  TGI: > 100 µM
HCT-15 colon
  TGI: > 100 µM
HL-60(TB) leukemia
  TGI: > 100 µM
HOP-62 NSCLC
  TGI: > 100 µM
HOP-92 NSCLC
  TGI: 71.2 µM
HS 578T breast
  TGI: > 100 µM
HT29 colon
  TGI: > 100 µM
IGROV1 ovarian
  TGI: 26.4 µM
K-562 leukemia
  TGI: > 100 µM
KM12 colon
  TGI: > 100 µM
LOX IMVI melanoma
  TGI: > 100 µM
M14 melanoma
  TGI: > 100 µM
MALME-3M melanoma
  TGI: > 100 µM
MCF7 breast
  TGI: > 100 µM
MDA-MB-231 breast
  TGI: > 100 µM
MDA-MB-435
  TGI: > 100 µM
MDA-N
  TGI: > 100 µM
MOLT-4 leukemia
  TGI: 56.1 µM
NCI-H226 lung
  TGI: 58.7 µM
NCI-H23 lung
  TGI: > 100 µM
NCI-H460 lung
  TGI: > 100 µM
NCI-H522 lung
  TGI: > 100 µM
NCI/ADR-RES ovarian
  TGI: > 100 µM
OVCAR-3 ovarian
  TGI: > 100 µM
OVCAR-4 ovarian
  TGI: > 100 µM
OVCAR-5 ovarian
  TGI: > 100 µM
OVCAR-8 ovarian
  TGI: > 100 µM
PC-3 prostate
  TGI: > 100 µM
RXF 393 renal
  TGI: 98.4 µM
SF-268 CNS
  TGI: > 100 µM
SF-295 CNS
  TGI: > 100 µM
SF-539 CNS
  TGI: 35.6 µM
SK-MEL-28 melanoma
  TGI: > 100 µM
SK-OV-3 ovarian
  TGI: > 100 µM
SN12C renal
  TGI: > 100 µM
SNB-19 CNS
  TGI: > 100 µM
SNB-75 CNS
  TGI: > 100 µM
SR leukemia
  TGI: > 100 µM
SW-620 colon
  TGI: > 100 µM
T-47D breast
  TGI: > 100 µM
TK-10 renal
  TGI: > 100 µM
U251 CNS
  TGI: > 100 µM
UACC-257 melanoma
  TGI: > 100 µM
UACC-62 melanoma
  TGI: > 100 µM
